# Measurements published in patent US12630563B2, “Macrocyclic RIP2-kinase inhibitors” (Oncodesign S.A., priority 2020, dated 2026).
# Target: T1, recombinant hRIPK2 protein (kinase domain aa 1-299-His-tagged) (Homo sapiens, UniProt O43353)
# T1 construct: kinase domain aa 1-299-His-tagged; purchased Life Technologies PR7829A
# Assay: RIPK2 AlphaLISA assay (displacement of bead-bound CZC-8004 from hRIPK2)
# Type: binding
# Settings: recombinant hRIPK2 kinase domain 10 nM, 2 h at 23° C.
# Text: RIPK2 AlphaLISA® Assay (Amplified Luminescent Proximity Homogeneous Assay)
# A non-specific kinase inhibitor (CZC-8004 Cayman #916603-07-1) bound to an acceptor bead (#6772001 PerkinElmer) was mixed to the recombinant hRIPK2 protein (kinase domain aa 1-299-His-tagged—Life Technologies PR7829A) and a Ni2+-tagged donor beads (#AS101D PerkinElmer). In the presence of an inhibitor, the compound beads displacement from hRIPK2 was followed by signal loss. In a 384-well ProxiPlate@ (Perkin Elmer, 6008280) add:
# 2 μL RIPK2 inhibitor (in DMSO 0.8%).
# 2 μL human recombinant RIPK2 (10 nM diluted in AlphaLISA buffer 1×).
# 4 μL Mix of […] 1/1000 in AlphaLISA buffer 1×.
# Homogenize using a microtiter plate shaker and incubate for 2 h at 23° C.
# Read using EnVision®-Alpha Reader (PerkinElmer) according to manufacturer specifications.
# T1 sequence (O43353 1-299): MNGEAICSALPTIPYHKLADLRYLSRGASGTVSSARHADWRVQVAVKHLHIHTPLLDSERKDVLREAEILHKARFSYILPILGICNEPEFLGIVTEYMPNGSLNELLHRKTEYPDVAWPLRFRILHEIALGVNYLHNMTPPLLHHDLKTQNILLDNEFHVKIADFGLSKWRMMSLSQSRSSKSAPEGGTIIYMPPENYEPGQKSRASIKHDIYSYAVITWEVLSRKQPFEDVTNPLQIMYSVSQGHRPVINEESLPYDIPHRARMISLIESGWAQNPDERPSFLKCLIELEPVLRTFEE
row,Structure (SMILES),IC50 [nM]
1,"O=C1[C@H](OCC2CC2)C[C@H]2COc3ccn4ncc(c4n3)-c3cc(F)cc(c3)NCCN12 [Example 11, (12R,14S)-12-(cyclopropylmethoxy)-4-fluoro-16-oxa-7,10,20,21,24-pentaazapentacyclo[15.5.2.1^2,6.0^10,^14.0^20,^23]pentacosa-1(23),2(25),3,5,17(24),18,21-heptaen-11-one]",< 10
2,"CO[C@@H]1C[C@H]2COc3ccn4ncc(c4n3)-c3cc(C#N)cc(c3)NCCN2C1=O [Example 12, (12R,14S)-12-methoxy-11-oxo-16-oxa-7,10,20,21,24-pentaazapentacyclo[15.5.2.1^2,6.0^10,^14.0^20,23]pentacosa-1(23),2,4,6(25),17(24),18,21-heptaene-4-carbonitrile]",< 10
3,"CO[C@@H]1C[C@H]2COc3ccn4ncc(c4n3)-c3cc(cc(OC(F)F)c3)NCCN2C1=O [Example 13, (12R,14S)-4-(difluoromethoxy)-12-methoxy-16-oxa-7,10,20,21,24-pentaazapentacyclo[15.5.2.1^2,6.0^10,^14.0^20,^23]pentacosa-1(23),2,4,6(25),17(24),18,21-heptaen-11-one]",< 10
4,"CO[C@@H]1C[C@H]2COc3ccn4ncc(c4n3)-c3cc(cc(OCc4ccccc4)c3)NCCN2C1=O [Example 14, (12R, 14S)-4-(benzyloxy)-12-methoxy-16-oxa-7,10,20,21,24-pentaazapentacyclo[15.5.2.1^2,6.0^10,14.0^20,^23]pentacosa-1(23),2,4,6(25),17(24),18,21-heptaen-11-one]",10 to 100
5,"CO[C@@H]1C[C@H]2COc3ccn4ncc(c4n3)-c3cc(cc(F)c3F)NCCN2C1=O [Example 15, (12R,14S)-3,4-difluoro-12-methoxy-16-oxa-7,10,20,21,24-pentaazapentacyclo[15.5.2.1^2,6.0^10,^14.0^20,^23]pentacosa-1(23),2,4,6(25),17(24),18,21-heptaen-11-one]",10 to 100
6,"COc1cc2cc(c1)-c1cnn3ccc(nc13)OC[C@@H]1C[C@@H](OC(C)C)C(=O)N1CCN2 [Example 16, (12R,14S)-4-methoxy-12-(propan-2-yloxy)-16-oxa-7,10,20,21,24-pentaazapentacyclo[15.5.2.1^2,6.0^10,^14.0^20,^23]pentacosa-1(23),2,4,6(25),17(24),18,21-heptaen-11-one]",< 10
7,"CCO[C@@H]1C[C@H]2COc3ccn4ncc(c4n3)-c3cc(F)cc(c3)NCCN2C1=O [Example 17, (12R,14S)-12-ethoxy-4-fluoro-16-oxa-7,10,20,21,24-pentaazapentacyclo[15.5.2.1^2,6.0^10,^14.0^20,^23]pentacosa-1(23),2,4,6(25),17(24),18,21-heptaen-11-one]",< 10
8,"CCO[C@@H]1C[C@H]2COc3nc4c(cnn4cc3C)-c3cc(F)cc(c3)NCCN2C1=O [Example 18, (12R,14S)-12-ethoxy-4-fluoro-18-methyl-16-oxa-7,10,20,21,24-pentaazapentacyclo[15.5.2.1^2,6.0^10,^14.0^20,^23]pentacosa-1(23),2,4,6(25),17(24),18,21-heptaen-11-one]",< 10
9,"COc1cc2cc(c1)-c1cnn3cc(C)c(nc13)OC[C@@H]1C[C@@H](OC)C(=O)N1CCN2 [Example 19, (12R,14S)-4,12-dimethoxy-18-methyl-16-oxa-7,10,20,21,24-pentaazapentacyclo[15.5.2.1^2,6.0^10,^14.0^20,^23]pentacosa-1(23),2(25),3,5,17(24),18,21-heptaen-11-one]",< 10
10,"CCO[C@@H]1C[C@H]2COc3ccn4ncc(c4n3)-c3cc(Cl)cc(c3)NCCN2C1=O [Example 20, (12R,14S)-4-chloro-12-ethoxy-16-oxa-7,10,20,21,24-pentaazapentacyclo[15.5.2.1^2,6.0^10,^14.0^20,^23]pentacosa-1(23),2,4,6(25),17(24),18,21-heptaen-11-one]",< 10
11,"CCc1cc2cc(c1)-c1cnn3ccc(nc13)OC[C@@H]1C[C@@H](OC)C(=O)N1CCN2 [Example 21, (12R,14S)-4-ethyl-12-methoxy-16-oxa-7,10,20,21,24-pentaazapentacyclo[15.5.2.1^2,6.0^10,^14.0^20,^23]pentacosa-1(23),2,4,6(25),17(24),18,21-heptaen-11-one]",10 to 100
12,"COc1cc2cc(c1)-c1cnn3ccc(nc13)OC[C@@H]1C[C@@H](OCC3CC3)C(=O)N1CCN2 [Example 22, (12R,14S)-12-(cyclopropylmethoxy)-4-methoxy-16-oxa-7,10,20,21,24-pentaazapentacyclo[15.5.2.1^2,6.0^10,^14.0^20,^23]pentacosa-1(23),2(25),3,5,17(24),18,21-heptaen-11-one]",< 10
13,"CCO[C@@H]1C[C@H]2COc3ccn4ncc(c4n3)-c3cc(C#N)cc(c3)NCCN2C1=O [Example 23, (12R,14S)-12-ethoxy-11-oxo-16-oxa-7,10,20,21,24-pentaazapentacyclo[15.5.2.1^2,6.0^10,^14.0^20,^23]pentacosa-1(23),2,4,6(25),17(24),18,21-heptaene-4-carbonitrile]",< 10
14,"CO[C@@H]1C[C@H]2COc3nc4c(cnn4cc3C)-c3cc(Cl)cc(c3)NCCN2C1=O [Example 24, (12R,14S)-4-chloro-12-methoxy-18-methyl-16-oxa-7,10,20,21,24-pentaazapentacyclo[15.5.2.1^2,6.0^10,^14.0^20,^23]pentacosa-1(23),2(25),3,5,17(24),18,21-heptaen-11-one]",< 10
15,"CO[C@H]1C[C@H]2COc3ccn4ncc(c4n3)-c3cc(F)cc(c3)NCCN2C1=O [Example 25, (12S,14S)-4-fluoro-12-methoxy-16-oxa-7,10,20,21,24-pentaazapentacyclo[15.5.2.1^2,6.0^10,^14.0^20,^23]pentacosa-1(23),2(25),3,5,17(24),18,21-heptaen-11-one]",< 10
16,"O=C1[C@H](F)C[C@H]2COc3ccn4ncc(c4n3)-c3cc(F)cc(c3)NCCN12 [Example 26, (12R,14S)-4,12-difluoro-16-oxa-7,10,20,21,24-pentaazapentacyclo[15.5.2.1^2,6.0^10,^14.0^20,^23]pentacosa-1(23),2,4,6(25),17(24),18,21-heptaen-11-one]",< 10
17,"COc1cc2cc(c1F)NCCN1C(=O)[C@H](OC)C[C@H]1COc1ccn3ncc-2c3n1 [Example 27, (12R,14S)-5-fluoro-4,12-dimethoxy-16-oxa-7,10,20,21,24-pentaazapentacyclo[15.5.2.1^2,6.0^10,^14.0^20,^23]pentacosa-1(23),2,4,6(25),17(24),18,21-heptaen-11-one]",< 10

# Now from value to compound:
row,IC50 [nM],Structure (SMILES)
1,< 10,"CCOc1cc2cc(c1)-c1cnn3ccc(nc13)OC[C@@H]1C[C@@H](OCC)C(=O)N1CCN2 [Example 28, (12R,14S)-4,12-diethoxy-16-oxa-7,10,20,21,24-pentaazapentacyclo[15.5.2.1^2,6.0^10,^14.0^20,^23]pentacosa-1(23),2(25),3,5,17(24),18,21-heptaen-11-one]"
2,< 10,"CO[C@@H]1C[C@H]2COc3ccn4ncc(c4n3)-c3cc(F)c(F)c(c3)NCCN2C1=O [Example 29, (12R,14S)-4,5-difluoro-12-methoxy-16-oxa-7,10,20,21,24-pentaazapentacyclo[15.5.2.1^2,6.0^10,^14.0^20,^23]pentacosa-1(23),2(25),3,5,17(24),18,21-heptaen-11-one]"
3,< 10,"CO[C@@H]1C[C@H]2COc3nc4c(cnn4cc3C)-c3cc(F)cc(c3)NCCN2C1=O [Example 30, (12R,14S)-4-fluoro-12-methoxy-18-methyl-16-oxa-7,10,20,21,24-pentaazapentacyclo[15.5.2.1^2,6.0^10,^14.0^20,^23]pentacosa-1(23),2(25),3,5,17(24),18,21-heptaen-11-one]"
4,< 10,"COCc1cn2ncc3c2nc1OC[C@@H]1C[C@@H](OC)C(=O)N1CCNc1cc(F)cc-3c1 [Example 33, (12R,14S)-4-fluoro-12-methoxy-18-(methoxymethyl)-16-oxa-7,10,20,21,24-pentaazapentacyclo[15.5.2.1^2,6.0^10,^14.0^20,^23]pentacosa-1(23),2(25),3,5,17(24),18,21-heptaen-11-one]"
5,< 10,"CO[C@@H]1C[C@H]2COc3nc4c(cnn4cc3F)-c3cc(F)cc(c3)NCCN2C1=O [Example 34, (12R,14S)-4,18-difluoro-12-methoxy-16-oxa-7,10,20,21,24-pentaazapentacyclo[15.5.2.1^2,6.0^10,^14.0^20,^23]pentacosa-1(23),2(25),3,5,17(24),18,21-heptaen-11-one]"
6,< 10,"COCCO[C@@H]1C[C@H]2COc3ccn4ncc(c4n3)-c3cc(F)cc(c3)NCCN2C1=O [Example 35, (12R,14S)-4-fluoro-12-(2-methoxyethoxy)-16-oxa-7,10,20,21,24-pentaazapentacyclo[15.5.2.1^2,6.01^0,^14.0^20,23]pentacosa-1(23),2,4,6(25),17(24),18,21-heptaen-11-one]"
7,< 10,"[2H]C([2H])([2H])O[C@@H]1C[C@H]2COc3ccn4ncc(c4n3)-c3cc(F)cc(c3)NCCN2C1=O [Example 36, (12R,14S)-4-fluoro-12-(^2H3)methoxy-16-oxa-7,10,20,21,24-pentaazapentacyclo[15.5.2.1^2,6.0^10,^14.0^20,^23]pentacosa-1(23),2(25),3,5,17(24),18,21-heptaen-11-one]"
8,< 10,"[2H]C([2H])([2H])O[C@@H]1C[C@H]2COc3ccn4ncc(c4n3)-c3cc(cc(OC)c3)NCCN2C1=O [Example 37, (12R,14S)-12-(2H3)methoxy-4-methoxy-16-oxa-7,10,20,21,24-pentaazapentacyclo[15.5.2.1^2,6.0^10,^14.0^20,^23]pentacosa-1(23),2,4,6(25),17(24),18,21-heptaen-11-one]"
